Reference: US20260018245A1, “SYSTEMS AND METHODS FOR IDENTIFYING AND TARGETING COLLATERAL LETHAL GENES” (The Regents of the University of Michigan, priority 2022, published 2026)

Key:
[1] = test system: UQCR11-null HeyA8 cells; test: Resistance to MTHFD2 inhibition upon AOX expression or UQCR11 overexpression; type: cell-based; details: 72 h
Excerpt: FIG. 11 Investigating alternative metabolic pathways to rescue UQCR11-null cells from collateral lethal targeting of MTHFD2. (a) Correlation between NDUFS7 mRNA expression and copy-number alterations of the 19p13.3 locus, represented by UQCR11 copy-number in TCGA OVCA dataset (n=303). Correlations estimated using Spearman's rank correlation test. (b) Gene expression of NDUFS7 measured via qRT-PCR in UQCR11-null lines (OVCAR8, CAOV3, HeyA8) relative to NDUFS7 expression in UQCR11-intact line (SKOV3). Data representative of two independent experiments presented as mean±s.d. (n=5), analyzed using ordinary one-way ANOVA with Dunnett's correction for multiple comparisons. (c) Doseresponse curve for single-agent inhibition in SKOV3 cells by either Complex I inhibitor, rotenone, or MTHFD2 inhibitor. […] Data are representative of two independent experiments and presented as mean±s.e.m (n=3) and analyzed using two-tailed Welch's t-test. […] Viability decrease was measured 72 h after inhibitor treatment relative to vehicle control. […] (n=6) and analyzed using ordinary 2-way ANOVA with Sidak's correction for multiple comparisons. […] (n=4) and analyzed using two-tailed Welch's t-test. […] Viability decrease was measured 72 h after inhibitor treatment relative to vehicle control. […] (n=5) and analyzed using two-tailed Welch's t-test.

[2] = test system: reductive MTHFD2 flux in SKOV3 cells; test: Reductive MTHFD2 flux by 2,3,3-[2H]-serine tracing; type: cell-based; details: SKOV3 treated with MTHFD2 inhibitor 60 μM
Method: FIG. 4 Dynamic flux analysis with parallel tracers to quantify oxidative MTHFD2 flux. a, Oxidative MTHFD2 flux and percentage decrease in OCRfollowing MTHFD2 inhibition in SKOV3 cells treated with rotenone (0, 31, 62, 125, 250, 500 or 1,000 nM) and MTHFD2 inhibitor (0 or 60 μM). Oxidative MTHFD2 flux is proportional to [2H1]-serine/[2H1]-NADH enrichment in cells cultured with 4-[2H]-glucose for 8 h. Percentage decrease in OCR is estimated in SKOV3 cells treated with 60 μM MTHFD2i compared with 0 μM MTHFD2i. Oxidative flux data are combined from two independent experiments (n=4), with mean±s.d. estimated using error propagation. […] (n=6) and analysed using two-tailed Welch's t-test. e, Ratio of [2H2]-serine/[2H]-NADH enrichment in SKOV3 and OVCAR8 cells at 2 h after combined tracer introduction of 4-[2H]-glucose and [2H]-formate, representing the normalized contribution of [2H]-NADH to [2H2]-serine via oxidative MTHFD2 flux. Data combined from two independent experiments (n=6), with mean±s.d. estimated using error propagation and analysed by two-tailed Welch's t-test. f, [2H2]-serine enrichment in SKOV3 cells expressing shScramble or shUQCR11 at 2 h after combined tracer introduction of 4-[2H]-glucose and [2H]-formate. […] (n=5) and analysed using one-tailed non-parametric Mann-Whitney test. […]

SMILES: Cc1c(N2CCN(C)[C@@H](C)C2)ccc2c3c(c(=O)oc12)CN(C(=O)c1ccc(NS(C)(=O)=O)c(OC(F)(F)F)c1)CC3 [DS18561882]
- rescue from MTHFD2 inhibitor-mediated cell death ([1]; HeyA8 ectopically expressing alternative oxidase AOX): partially rescued
- rescue from MTHFD2 inhibitor-mediated cell death ([1]; HeyA8 overexpressing UQCR11): partially rescued
- reductive MTHFD2 flux [2]: greatly reduced
